Test results reported in patent US12410184B2, “Crystalline forms of a menin inhibitor” (Kura Oncology, Inc., priority 2023, dated 2025).

Tests used:
[1] = Compound 1, Form 1 and Form 5 interconversion study (slurry in saturated solutions, XRPD); type: physicochemical; conditions: conclusion from Table 5 interconversion study
Method: Saturated solutions of Compound 1, Form 1, in EtOH, MTBE, and isopropyl acetate at 50° C. were prepared. About 6 mg of Compound 1, Form 1, and Compound 1, Form 5, were weighed into each saturated solutions, and the resulting suspensions were slurried for 2 days at corresponding temperature. The resulting solids were sampled for XRPD analysis.

[2] = Solid form stability under humidity or vacuum/heat; type: physicochemical
Method: Treatment of Form 5 at 40° C., 75% relative humidity for 6 days provided mainly Form 4.
Treatment of Form 4 at 50° C. under vacuum and inert atmosphere for 5 days provided mainly Form 4.

With `CNc1nc(NC2CCN(Cc3ccc4c(cc(C#N)n4C[C@H](C)N4CCN(S(C)(=O)=O)CC4)c3C)CC2)c2cc(CC(F)(F)F)sc2n1` [Compound 1, Form 1, (S)-4-methyl-5-((4-((2-(methylamino)-6-(2,2,2-trifluoroethyl)thieno[2,3-d]pyrimidin-4-yl)amino)piperidin-1-yl)methyl)-1-(2-(4-(methylsulfonyl)piperazin-1-yl)propyl)-1H-indole-2-carbonitrile] the “Thermodynamic stability of crystalline form” value [1] was “thermodynamically stable crystalline form”.

In the case of `CNc1nc(NC2CCN(Cc3ccc4c(cc(C#N)n4C[C@H](C)N4CCN(S(C)(=O)=O)CC4)c3C)CC2)c2cc(CC(F)(F)F)sc2n1` [Compound 1, Form 4, (S)-4-methyl-5-((4-((2-(methylamino)-6-(2,2,2-trifluoroethyl)thieno[2,3-d]pyrimidin-4-yl)amino)piperidin-1-yl)methyl)-1-(2-(4-(methylsulfonyl)piperazin-1-yl)propyl)-1H-indole-2-carbonitrile], the “Solid form after treatment” value ([2]; 50° C. under vacuum and inert atmosphere, 5 days) was “mainly Form 4”.

In the case of `CNc1nc(NC2CCN(Cc3ccc4c(cc(C#N)n4C[C@H](C)N4CCN(S(C)(=O)=O)CC4)c3C)CC2)c2cc(CC(F)(F)F)sc2n1` [Compound 1, Form 5, (S)-4-methyl-5-((4-((2-(methylamino)-6-(2,2,2-trifluoroethyl)thieno[2,3-d]pyrimidin-4-yl)amino)piperidin-1-yl)methyl)-1-(2-(4-(methylsulfonyl)piperazin-1-yl)propyl)-1H-indole-2-carbonitrile], the “Solid form after treatment” value ([2]; 40° C., 75% relative humidity, 6 days) was “mainly Form 4”.
